Where two headings read alike, the source gives them in different places.
Legend:
[1] = tested on: AMO-1 human multiple myeloma tumor cell line; assay: AMO-1 cell viability assay (CellTiter-Glo, 24 hours); format: cell-based; settings: Homo sapiens, AMO1, 24 h, read-out: AMO-1 Viability IC50 (μM, 10% FBS), 10% FBS, 24 hours of compound treatment
[2] = tested on: NCI-H929 human multiple myeloma tumor cell line; assay: NCI-H929 cell viability assay (CellTiter-Glo, 24 hours); format: cell-based; settings: Homo sapiens, NCI-H929, 24 h, read-out: H929 Viability IC50 (μM, 10% FBS), 10% FBS, 24 hours of compound treatment
[3] = molecular target: GST-MCL-1 (Homo sapiens, UniProt Q07820); assay: TR-FRET MCL-1 binding assay (competition with probe F-Bak)
Outline: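 Test compounds, 11 three-fold dilutions from 25 μM final, incubated 2 hours at room temperature with GST-MCL-1, F-Bak probe and Tb-anti-GST antibody. TR-FRET read at 340/35 nm excitation with 520/525 and 495/510 nm emission. Run without human serum and with 10% HS.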

[4] = MCL-1 Binding Ki (nM, 10% HS), in the presence of 10% HS (human serum)
[5] = without HS, read-out: MCL-1 Binding Ki

Sequence of GST-MCL-1 (Q07820 whole entry): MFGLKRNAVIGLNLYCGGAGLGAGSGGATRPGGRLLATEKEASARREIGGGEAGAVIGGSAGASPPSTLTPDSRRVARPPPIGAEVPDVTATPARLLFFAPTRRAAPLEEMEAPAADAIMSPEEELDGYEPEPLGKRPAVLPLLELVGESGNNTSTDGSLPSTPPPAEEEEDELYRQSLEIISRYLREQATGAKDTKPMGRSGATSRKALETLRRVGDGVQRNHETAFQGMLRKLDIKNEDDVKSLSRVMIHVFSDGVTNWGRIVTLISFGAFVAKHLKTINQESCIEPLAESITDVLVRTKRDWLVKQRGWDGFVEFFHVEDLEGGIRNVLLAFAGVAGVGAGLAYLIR

COCCOCCOCCOCCOCCOCCOCC1(c2nccc(COc3ccc4cc3C[C@H](C(=O)O)Oc3ncnc5sc(-c6ccc(F)cc6)c(c35)-c3c(C)c(Cl)c(c(Cl)c3C)O[C@H](CN3CCN(C)CC3)CO4)n2)CCC1 [Example 60, (7R,16R)-19,23-dichloro-1-(4-fluorophenyl)-10-({2-[1-(2,5,8,11,14,17,20-heptaoxahenicosan-1-yl)cyclobutyl]pyrimidin-4-yl}methoxy)-20,22-dimethyl-16-[(4-methylpiperazin-1-yl)methyl]-7,8,15,16-tetrahydro-18,21-etheno-13,9-(metheno)-6,14,17-trioxa-2-thia-3,5-diazacyclononadeca[1,2,3-cd]indene-7-carboxylic Acid]
IC50 [1]: 0.000987 µM | IC50 [2]: 0.00115 µM | Ki [3, 4]: 0.125 nM | Ki [3, 5]: 0.042 nM

Cc1c(Cl)c2c(Cl)c(C)c1-c1c(-c3ccc(F)cc3)sc3ncnc(c13)O[C@@H](C(=O)O)Cc1cc(ccc1OCc1ccnc(C3CCS(=O)(=O)C3)n1)OC[C@@H](CN1CCN(C)CC1)O2 (stereo partly drawn) [Example 73, (7R,16R)-19,23-dichloro-10-{[2-(1,1-dioxo-1λ^6-thiolan-3-yl)pyrimidin-4-yl]methoxy}-1-(4-fluorophenyl)-20,22-dimethyl-16-[(4-methylpiperazin-1-yl)methyl]-7,8,15,16-tetrahydro-18,21-etheno-9,13-(metheno)-6,14,17-trioxa-2-thia-3,5-diazacyclononadeca[1,2,3-cd]indene-7-carboxylic Acid]
IC50 [1]: 0.00262 µM | IC50 [2]: 0.00556 µM | Ki [3, 4]: 0.208 nM | Ki [3, 5]: 0.037 nM

Cc1c(Cl)c2c(Cl)c(C)c1-c1c(-c3ccc(F)cc3)sc3ncnc(c13)O[C@@H](C(=O)O)Cc1cc(ccc1OCc1ccnc(-c3ccc(CN4CCOCC4)cc3)n1)OC[C@@H](CN1CCN(C)CC1)O2 [Example 148, (7R,16R)-19,23-dichloro-1-(4-fluorophenyl)-20,22-dimethyl-16-[(4-methylpiperazin-1-yl)methyl]-10-[(2-{4-[(morpholin-4-yl)methyl]phenyl}pyrimidin-4-yl)methoxy]-7,8,15,16-tetrahydro-18,21-etheno-13,9-(metheno)-6,14,17-trioxa-2-thia-3,5-diazacyclononadeca[1,2,3-cd]indene-7-carboxylic Acid]
IC50 [1]: 0.00018 µM | IC50 [2]: 0.000736 µM | Ki [3, 4]: 0.346 nM | Ki [3, 5]: 0.034 nM

COCCOCCOCCOCCOc1nccc(COc2ccc3cc2C[C@H](C(=O)O)Oc2ncnc4sc(-c5ccc(F)cc5)c(c24)-c2c(C)c(Cl)c(c(Cl)c2C)O[C@H](CN2CCN(C)CC2)CO3)n1 [Example 89, (7R,16R)-19,23-dichloro-1-(4-fluorophenyl)-20,22-dimethyl-16-[(4-methylpiperazin-1-yl)methyl]-10-({2-[(2,5,8,11-tetraoxatridecan-13-yl)oxy]pyrimidin-4-yl}methoxy)-7,8,15,16-tetrahydro-18,21-etheno-13,9-(metheno)-6,14,17-trioxa-2-thia-3,5-diazacyclononadeca[1,2,3-cd]indene-7-carboxylic Acid]
IC50 [1]: 0.00262 µM | IC50 [2]: 0.00299 µM | Ki [3, 4]: 0.485 nM | Ki [3, 5]: 0.067 nM

COCCOCCOCCOCCOCCOCCOCCOc1ccc(-c2nccc(COc3ccc4cc3C[C@H](C(=O)O)Oc3ncnc5sc(-c6ccc(F)cc6)c(c35)-c3c(C)c(Cl)c(c(Cl)c3C)O[C@H](CN3CCN(C)CC3)CO4)n2)cc1 [Example 54, (7R,16R)-19,23-dichloro-1-(4-fluorophenyl)-10-[(2-{4-[(2,5,8,11,14,17,20-heptaoxadocosan-22-yl)oxy]phenyl}pyrimidin-4-yl)methoxy]-20,22-dimethyl-16-[(4-methylpiperazin-1-yl)methyl]-7,8,15,16-tetrahydro-18,21-etheno-13,9-(metheno)-6,14,17-trioxa-2-thia-3,5-diazacyclononadeca[1,2,3-cd]indene-7-carboxylic Acid]
IC50 [1]: 0.000591 µM | IC50 [2]: 0.000771 µM | Ki [3, 4]: 0.139 nM | Ki [3, 5]: 0.025 nM

COCCOCCOCCOCCOCCOC1(c2nccc(COc3ccc4cc3C[C@H](C(=O)O)Oc3ncnc5sc(-c6ccc(F)cc6)c(c35)-c3c(C)c(Cl)c(c(Cl)c3C)O[C@H](CN3CCN(C)CC3)CO4)n2)CCC1 [Example 63, (7R,16R)-19,23-dichloro-1-(4-fluorophenyl)-20,22-dimethyl-16-[(4-methylpiperazin-1-yl)methyl]-10-[(2-{1-[(2,5,8,11,14-pentaoxahexadecan-16-yl)oxy]cyclobutyl}pyrimidin-4-yl)methoxy]-7,8,15,16-tetrahydro-18,21-etheno-9,13-(metheno)-6,14,17-trioxa-2-thia-3,5-diazacyclononadeca[1,2,3-cd]indene-7-carboxylic Acid]
IC50 [1]: 0.00205 µM | IC50 [2]: 0.0032 µM | Ki [3, 4]: 0.148 nM | Ki [3, 5]: 0.039 nM

Cc1c(Cl)c2c(Cl)c(C)c1-c1c(-c3ccc(F)cc3)sc3ncnc(c13)O[C@@H](C(=O)O)Cc1cc(ccc1OCc1ccnc(C3=CCC(CC(=O)O)CC3)n1)OC[C@@H](CN1CCN(C)CC1)O2 (single isomer, unassigned) [Example 35, (7R,16R)-10-({2-[(4S*)-4-(carboxymethyl)cyclohex-1-en-1-yl]pyrimidin-4-yl}methoxy)-19,23-dichloro-1-(4-fluorophenyl)-20,22-dimethyl-16-[(4-methylpiperazin-1-yl)methyl]-7,8,15,16-tetrahydro-18,21-etheno-13,9-(metheno)-6,14,17-trioxa-2-thia-3,5-diazacyclononadeca[1,2,3-cd]indene-7-carboxylic Acid]
IC50 [1]: 0.01 µM | IC50 [2]: 0.017 µM | Ki [3, 4]: 0.113 nM | Ki [3, 5]: 0.007 nM

Cc1c(Cl)c2c(Cl)c(C)c1-c1c(-c3ccc(F)cc3)sc3ncnc(c13)O[C@@H](C(=O)O)Cc1cc(ccc1OCc1ccnc(N3CCC4(CCCNC4=O)CC3)n1)OC[C@@H](CN1CCN(C)CC1)O2 [Example 61, (7R,16R)-19,23-dichloro-1-(4-fluorophenyl)-20,22-dimethyl-16-[(4-methylpiperazin-1-yl)methyl]-10-{[2-(1-oxo-2,9-diazaspiro[5.5]undecan-9-yl)pyrimidin-4-yl]methoxy}-7,8,15,16-tetrahydro-18,21-etheno-13,9-(metheno)-6,14,17-trioxa-2-thia-3,5-diazacyclononadeca[1,2,3-cd]indene-7-carboxylic Acid]
IC50 [1]: 0.00886 µM | IC50 [2]: 0.0115 µM | Ki [3, 4]: 4.2 nM | Ki [3, 5]: 0.364 nM

Cc1c(Cl)c2c(Cl)c(C)c1-c1c(-c3ccc(F)cc3)sc3ncnc(c13)O[C@@H](C(=O)O)Cc1cc(ccc1OCc1ccnc(-c3ccc(CCN4CC5COCC5C4)cc3)n1)OC[C@@H](CN1CCN(C)CC1)O2 (stereo partly drawn) [Example 166, (7R,16R)-19,23-dichloro-1-(4-fluorophenyl)-20,22-dimethyl-16-[(4-methylpiperazin-1-yl)methyl]-10-[(2-{4-[2-(tetrahydro-1H-furo[3,4-c]pyrrol-5 (3H)-yl)ethyl]phenyl}pyrimidin-4-yl)methoxy]-7,8,15,16-tetrahydro-18,21-etheno-9,13-(metheno)-6,14,17-trioxa-2-thia-3,5-diazacyclononadeca[1,2,3-cd]indene-7-carboxylic Acid]
IC50 [1]: 0.000927 µM | IC50 [2]: 0.0032 µM | Ki [3, 4]: 0.058 nM | Ki [3, 5]: 0.002 nM

CO[C@@H]1CO[C@H]2[C@@H]1OC[C@H]2OCCOc1nccc(COc2ccc3cc2C[C@H](C(=O)O)Oc2ncnc4sc(-c5ccc(F)cc5)c(c24)-c2c(C)c(Cl)c(c(Cl)c2C)O[C@H](CN2CCN(C)CC2)CO3)n1 [Example 134, (7R,16R)-19,23-dichloro-1-(4-fluorophenyl)-10-{[2-(2-{[(3R,3aR,6R,6aR)-6-methoxyhexahydrofuro[3,2-b]furan-3-yl]oxy}ethoxy)pyrimidin-4-yl]methoxy}-20,22-dimethyl-16-[(4-methylpiperazin-1-yl)methyl]-7,8,15,16-tetrahydro-18,21-etheno-13,9-(metheno)-6,14,17-trioxa-2-thia-3,5-diazacyclononadeca[1,2,3-cd]indene-7-carboxylic Acid]
IC50 [1]: 0.00304 µM | IC50 [2]: 0.01 µM | Ki [3, 4]: 0.339 nM | Ki [3, 5]: 0.047 nM

COCCOCCOCCOCCOCCOCCOC1(c2nccc(COc3ccc4cc3C[C@H](C(=O)O)Oc3ncnc5sc(-c6ccc(F)cc6)c(c35)-c3c(C)c(Cl)c(c(Cl)c3C)O[C@H](CN3CCN(C)CC3)CO4)n2)CCCC1 [Example 74, (7R,16R)-19,23-dichloro-1-(4-fluorophenyl)-10-[(2-{1-[(2,5,8,11,14,17-hexaoxanonadecan-19-yl)oxy]cyclopentyl}pyrimidin-4-yl)methoxy]-20,22-dimethyl-16-[(4-methylpiperazin-1-yl)methyl]-7,8,15,16-tetrahydro-18,21-etheno-9,13-(metheno)-6,14,17-trioxa-2-thia-3,5-diazacyclononadeca[1,2,3-cd]indene-7-carboxylic Acid]
IC50 [1]: 0.00153 µM | IC50 [2]: 0.00237 µM | Ki [3, 4]: 0.12 nM | Ki [3, 5]: 0.083 nM

Reference: US20250313572A1, “MACROCYCLIC MCL-1 INHIBITORS AND METHODS OF USE” (AbbVie Inc., priority 2017, published 2025)
